Assay results from article PMC7926793, “Synthesis and Biological Evaluation of 1-(Diarylmethyl)-1H-1,2,4-triazoles and 1-(Diarylmethyl)-1H-imidazoles as a Novel Class of Anti-Mitotic Agent for Activity in Breast Cancer” (Pharmaceuticals, 2021).
Several values for one entry are separate records, joined by “and”; a condition that tells them apart may be missing. Equal entries are not always repeated.

Tests used:
RPMI-8226 = experiment: NCI 60 cell line screen (Leukemia); type: cell-based, human; conditions: for GI50: Homo sapiens, RPMI-8226, NCI 5 dose assay; for Growth percentage: RPMI-8226, single dose 10 µM
EKVX = experiment: NCI 60 cell line screen (Non-Small Cell Lung Cancer); type: cell-based, human; conditions: for GI50: Homo sapiens, NCI 5 dose assay; for Growth percentage: single dose 10 µM
NCI-H460 = experiment: as above; type: cell-based, human; conditions: for GI50: Homo sapiens, NCI-H460, NCI 5 dose assay; for Growth percentage: NCI-H460, single dose 10 µM
MDA-MB-435 = experiment: NCI 60 cell line screen (Melanoma); type: cell-based, human; conditions: for GI50: Homo sapiens, MDA-MB-435, NCI 5 dose assay; for Growth percentage: MDA-MB-435, single dose 10 µM
SK-MEL-28 = experiment: NCI 60 cell line screen (Melanoma); type: cell-based, human; conditions: SK-MEL-28, single dose 10 µM
SNB-19 = experiment: NCI 60 cell line screen (CNS Cancer); type: cell-based, human; conditions: for GI50: Homo sapiens, SNB-19, NCI 5 dose assay; for Growth percentage: SNB-19, single dose 10 µM
SK-MEL-2 = experiment: NCI 60 cell line screen (Melanoma); type: cell-based, human; conditions: for GI50: Homo sapiens, SK-MEL-2, NCI 5 dose assay; for Growth percentage: SK-MEL-2, single dose 10 µM
NCI-H23 = experiment: NCI 60 cell line screen (Non-Small Cell Lung Cancer); type: cell-based, human; conditions: for GI50: Homo sapiens, NCI-H23, NCI 5 dose assay; for Growth percentage: NCI-H23, single dose 10 µM
HCT-2998 = experiment: NCI 60 cell line screen (Colon Cancer); type: cell-based, human; conditions: for Growth percentage: HCT-2998, single dose 10 µM; for GI50: Homo sapiens, 60 cell, HCT-2998, NCI 5 dose assay
DU-145 = experiment: NCI 60 cell line screen (Prostate cancer); type: cell-based, human; conditions: for Growth percentage: DU-145, single dose 10 µM; for GI50: Homo sapiens, DU-145, NCI 5 dose assay
MOLT-4 = experiment: NCI 60 cell line screen (Leukemia); type: cell-based, human; conditions: for GI50: Homo sapiens, MOLT-4, NCI 5 dose assay; for Growth percentage: MOLT-4, single dose 10 µM
KM12 = experiment: NCI 60 cell line screen (Colon Cancer); type: cell-based, human; conditions: for GI50: Homo sapiens, KM12, NCI 5 dose assay; for Growth percentage: KM12, single dose 10 µM
HOP-62 = experiment: NCI 60 cell line screen (Non-Small Cell Lung Cancer); type: cell-based, human; conditions: for Growth percentage: HOP-62, single dose 10 µM; for GI50: Homo sapiens, HOP-62, NCI 5 dose assay
TK-10 = experiment: NCI 60 cell line screen (Renal Cancer); type: cell-based, human; conditions: for Growth percentage: TK-10, single dose 10 µM
CYP19 (aromatase) = target: T1, CYP19 (aromatase) (Homo sapiens, UniProt P11511); experiment: cytochrome P450 assay (DBF fluorescence); conditions: for inhibition at 20 µg/mL: read-out: % Inhibition at 20 µg/mL CYP19
T1 sequence (P11511 1-503): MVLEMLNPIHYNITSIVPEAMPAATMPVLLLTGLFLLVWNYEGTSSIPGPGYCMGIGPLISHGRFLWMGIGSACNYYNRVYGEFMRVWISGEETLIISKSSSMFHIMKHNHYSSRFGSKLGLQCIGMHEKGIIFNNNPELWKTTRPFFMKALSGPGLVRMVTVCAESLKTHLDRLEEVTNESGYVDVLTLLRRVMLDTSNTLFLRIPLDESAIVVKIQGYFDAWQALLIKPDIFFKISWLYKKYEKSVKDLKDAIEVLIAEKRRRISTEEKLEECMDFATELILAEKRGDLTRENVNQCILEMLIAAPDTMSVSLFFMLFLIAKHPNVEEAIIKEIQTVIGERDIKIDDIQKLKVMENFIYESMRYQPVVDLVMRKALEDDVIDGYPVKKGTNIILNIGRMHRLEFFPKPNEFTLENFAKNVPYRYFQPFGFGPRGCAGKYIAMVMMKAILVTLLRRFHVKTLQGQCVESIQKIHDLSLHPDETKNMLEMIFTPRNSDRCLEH

HL-60 (TB) = experiment: NCI 60 cell line screen (Leukemia); type: cell-based, human; conditions: for GI50: Homo sapiens, NCI 5 dose assay; for Growth percentage: single dose 10 µM
NCI/ADR-RES = experiment: NCI 60 cell line screen (Ovarian Cancer); type: cell-based, human; conditions: for GI50: Homo sapiens, NCI 5 dose assay; for Growth percentage: single dose 10 µM
MDA-MB-468 = experiment: NCI 60 cell line screen (Breast Cancer); type: cell-based, human; conditions: for GI50: Homo sapiens, MDA-MB-468, NCI 5 dose assay; for Growth percentage: MDA-MB-468, single dose 10 µM
MALME-3M = experiment: NCI 60 cell line screen (Melanoma); type: cell-based, human; conditions: single dose 10 µM
UACC-62 = experiment: NCI 60 cell line screen (Melanoma); type: cell-based, human; conditions: for GI50: Homo sapiens, UACC-62, NCI 5 dose assay; for Growth percentage: UACC-62, single dose 10 µM
SK-MEL-5 = experiment: NCI 60 cell line screen (Melanoma); type: cell-based, human; conditions: for GI50: Homo sapiens, SK-MEL-5, NCI 5 dose assay; for Growth percentage: SK-MEL-5, single dose 10 µM
OVCAR-5 = experiment: NCI 60 cell line screen (Ovarian Cancer); type: cell-based, human; conditions: for GI50: Homo sapiens, OVCAR-5, NCI 5 dose assay; for Growth percentage: OVCAR-5, single dose 10 µM
CYP1A1 = target: T2, CYP1A1 (Homo sapiens, UniProt P04798); experiment: cytochrome P450 assay (DBF fluorescence); conditions: for IC50: IC50 CYP1A1; for inhibition at 25 min, 20 µg/mL: human, recombinant CYP1A1, pH 7.4, probe dibenzylfluorescein (DBF), 2.0 μM
T2 sequence (P04798 1-512): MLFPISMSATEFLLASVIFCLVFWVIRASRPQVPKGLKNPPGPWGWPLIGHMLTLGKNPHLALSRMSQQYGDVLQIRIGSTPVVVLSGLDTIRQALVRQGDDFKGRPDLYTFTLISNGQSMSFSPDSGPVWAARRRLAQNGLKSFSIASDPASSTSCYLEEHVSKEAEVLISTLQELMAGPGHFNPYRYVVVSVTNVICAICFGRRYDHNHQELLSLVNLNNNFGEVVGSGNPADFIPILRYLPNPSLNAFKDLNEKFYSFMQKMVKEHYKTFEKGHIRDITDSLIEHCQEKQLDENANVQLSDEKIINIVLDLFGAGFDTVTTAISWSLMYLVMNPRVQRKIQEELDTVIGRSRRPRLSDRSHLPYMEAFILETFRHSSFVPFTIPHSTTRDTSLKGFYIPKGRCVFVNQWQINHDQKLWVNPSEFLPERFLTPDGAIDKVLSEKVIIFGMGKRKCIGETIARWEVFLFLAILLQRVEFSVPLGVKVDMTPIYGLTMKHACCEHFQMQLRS

M14 = experiment: NCI 60 cell line screen (Melanoma); type: cell-based, human; conditions: for GI50: Homo sapiens, M14, NCI 5 dose assay; for Growth percentage: M14, single dose 10 µM
HS 578T = experiment: NCI 60 cell line screen (Breast Cancer); type: cell-based, human; conditions: for GI50: Homo sapiens, NCI 5 dose assay; for Growth percentage: single dose 10 µM
MCF-7 = experiment: NCI 60 cell line screen (Breast Cancer); type: cell-based, human; conditions: for GI50: Homo sapiens, MCF7, MCF-7, NCI 5 dose assay; for Growth percentage: MCF-7, single dose 10 µM

COc1ccc(C(c2cc(OC)c(OC)c(OC)c2)n2cncn2)cc1O (stereo not drawn) [19e, 5-((1H-1,2,4-Triazol-1-yl)(3,4,5-Trimethoxyphenyl)methyl)-2-Methoxyphenol]
GI50 (RPMI-8226): 0.452 µM
Growth percentage (RPMI-8226): 20.71%
GI50 (EKVX): 2.24 µM
Growth percentage (EKVX): 39.79%
GI50 (NCI-H460): 0.414 µM
Growth percentage (NCI-H460): 9.82%
GI50 (MDA-MB-435): 0.181 µM
Growth percentage (MDA-MB-435): -46.16%
Growth percentage (SK-MEL-28): 57.04%
GI50 (SNB-19): 0.578 µM
Growth percentage (SNB-19): 33.31%
GI50 (SK-MEL-2): 0.361 µM
Growth percentage (SK-MEL-2): 55.94%
GI50 (NCI-H23): 0.977 µM
Growth percentage (NCI-H23): 39.85%
Growth percentage (HCT-2998): 25.25%
GI50 (HCT-2998): 1.35 µM
Growth percentage (DU-145): 19.64%
GI50 (DU-145): 0.53 µM
GI50 (MOLT-4): 0.51 µM
Growth percentage (MOLT-4): 16.7%
GI50 (KM12): 0.418 µM
Growth percentage (KM12): 21.79%
Growth percentage (HOP-62): 32.17%
GI50 (HOP-62): 0.514 µM
GI50 (TK-10; Homo sapiens, TK-10, NCI 5 dose assay): > 100 µM
Growth percentage (TK-10): 61.31%
IC50 (CYP19 (aromatase); IC50 CYP19): 29 µM and 29.6 µM
inhibition at 20 µg/mL (CYP19 (aromatase)): 85.3%
inhibition at 20 µM (CYP19 (aromatase); read-out: inhibition of CYP19): > 85%
GI50 (HL-60 (TB)): 0.261 µM
Growth percentage (HL-60 (TB)): -32.53%
GI50 (NCI/ADR-RES): 1.18 µM
Growth percentage (NCI/ADR-RES): 1.80%
GI50 (MDA-MB-468): 0.371 µM
Growth percentage (MDA-MB-468): 7.88%
Growth percentage (MALME-3M): 70.24%
GI50 (UACC-62): 0.55 µM
Growth percentage (UACC-62): 32.04%
GI50 (SK-MEL-5): 0.44 µM
Growth percentage (SK-MEL-5): 14.60%
GI50 (OVCAR-5): 1.99 µM
Growth percentage (OVCAR-5): 72.98%
IC50 (CYP1A1): > 53.8 µM
inhibition at 25 min, 20 µg/mL (CYP1A1): 18.1%
GI50 (M14): 0.374 µM
Growth percentage (M14): -1.61%
GI50 (HS 578T): 0.548 µM
Growth percentage (HS 578T): 31.34%
GI50 (MCF-7): 0.347 µM
Growth percentage (MCF-7): 17.87%

COc1ccc(C(c2cc(OC)c(OC)c(OC)c2)n2ccnc2)cc1O (stereo not drawn) [21l, 5-((1H-Imidazol-1-yl)(3,4,5-Trimethoxyphenyl)Methyl)-2-Methoxyphenol]
GI50 (RPMI-8226): 0.385 µM
Growth percentage (RPMI-8226): 18.86%
GI50 (EKVX): 0.702 µM
Growth percentage (EKVX): 30.23%
GI50 (NCI-H460): 0.377 µM
Growth percentage (NCI-H460): 6.11%
GI50 (MDA-MB-435): 0.119 µM
Growth percentage (MDA-MB-435): -29.47%
Growth percentage (SK-MEL-28): 62.95%
GI50 (SNB-19): 0.532 µM
Growth percentage (SNB-19): 30.51%
GI50 (SK-MEL-2): 0.324 µM
Growth percentage (SK-MEL-2): 43.54%
GI50 (NCI-H23): 0.882 µM
Growth percentage (NCI-H23): 38.92%
Growth percentage (HCT-2998): 24.97%
GI50 (HCT-2998): 1.72 µM
Growth percentage (DU-145): 12.91%
GI50 (DU-145): 0.407 µM
GI50 (MOLT-4): 0.565 µM
Growth percentage (MOLT-4): 14.01%
GI50 (KM12): 0.389 µM
Growth percentage (KM12): 17.05%
Growth percentage (HOP-62): 29.46%
GI50 (HOP-62): 0.516 µM
Growth percentage (TK-10): 52.86%
inhibition at 20 µg/mL (CYP19 (aromatase)): 74.7%
GI50 (HL-60 (TB)): 0.229 µM
Growth percentage (HL-60 (TB)): -35.94%
GI50 (NCI/ADR-RES): 1.92 µM
Growth percentage (NCI/ADR-RES): 12.06%
GI50 (MDA-MB-468): 0.316 µM
Growth percentage (MDA-MB-468): 15.64%
Growth percentage (MALME-3M): 66.57%
GI50 (UACC-62): 0.668 µM
Growth percentage (UACC-62): 36.48%
GI50 (SK-MEL-5): 0.367 µM
Growth percentage (SK-MEL-5): -12.88%
GI50 (OVCAR-5): 0.648 µM
Growth percentage (OVCAR-5): 71.11%
IC50 (CYP1A1): > 54 µM
inhibition at 25 min, 20 µg/mL (CYP1A1): 18.4%
GI50 (M14): 0.18 µM
Growth percentage (M14): 0.91%
GI50 (HS 578T): 0.414 µM
Growth percentage (HS 578T): 29.10%
GI50 (MCF-7): 0.339 µM
Growth percentage (MCF-7): 18.38%
